Measurements published in patent US20120258117A1, “Methods and compositions for modulation of histone ubiquitination” (priority 2011, published 2012).

Legend:
U118 cells [1] = assay: Clonogenic assay (plating efficiency); type: cell-based, human; conditions: up to 9 days treatment, re-plated 1000-4000 cells, 14 days without resveratrol, dose-dependent
Experimental: (§1) Monolayer cultures of glioma cells were trypsinized and appropriate cell dilutions were re-plated. After 14 days, cultured cells were stained with 0.4% Coomassie Blue G250 in 50% methanol and 5% acetic acid. Colonies of 50 cells or more were counted. Plating efficiencies (PE) were calculated using the formula PE=(number of colonies counted/number of cells seeded)×100%. […] Monolayer cultures of glioma cells were trypsinized and seeded 1000, 2000, and 4000 cells separately in 60 mm culture dishes for incubation without further resveratrol treatment. After two weeks, these cell cultures were stained with 0.4% Coomassie Blue G250 in 50% methanol and 5% acetic acid. Colonies that contained more than 50 cells were counted. Cell clonogenicity was calculated with plating efficiencies (PE) using the formula PE=(number of colonies counted/number of cells seeded)×100%.

U87 cells [2] = assay: Clonogenic assay (plating efficiency); type: cell-based, human; conditions: up to 9 days treatment, re-plated 1000-4000 cells, 14 days without resveratrol, dose-dependent
Experimental: as §1

[3] = test system: mono-ubiquitination of histone H2B at K120 (uH2B); assay: Western analysis of uH2B, chronic (up to 9-day) resveratrol treatment; type: cell-based, human
Experimental: (§2) For short-term resveratrol treatment, cells in 60 mm dishes were allowed to grow to 40%-50% confluency. Their original media were changed to 5 ml DMEM media containing glucose (4.5 g/L) as the only carbon source (without both L-glutamine and sodium pyruvate). After one hour of media change, cells were collected as non-treated or treated with 5 μL acetone or resveratrol in 5 μL acetone vehicle for 4 hours and then collected for Western analysis. For long-term resveratrol treatment, 3×10^5 of U87 or U118 glioma cells were plated in 100 mm dishes. One day later, the culture media were replaced with fresh medium (10 mL/dish). […]
(§3) Cultured cells were harvested on ice (3-5 min) by scraping in the medium, centrifuged with about 300 relative centrifugal forces (RCF) for 2 minutes. […] Total protein was separated by 12% SDS polyacrylamide gel electrophoresis and analyzed with antibodies to H2B (Millipore, Billerica, Mass.), mono-ubiquitinated H2B (uH2B, MediMabs, Montreal, Quebec, Canada), RNF20 (Abcam, Cambridge, Mass.), p53 (Santa Cruz Biotechnology, Santa Cruz, Calif.). Immunoreactive bands were detected using SuperSignal kit (Thermo Scientific, Waltham, Mass.). […]

U118 cells [4] = assay: Cell proliferation (viable cell count, Trypan blue exclusion); type: cell-based, human; conditions: cells counted at 3, 6 and 9 days post treatment, dose- and time-dependent
Experimental: (§4) U87 MG and U118 MG (hereafter abbreviated as U87, U118 respectively) human glioblastoma (glioma) cell lines were kindly provided by Dr. Hui Zhang and Dr. Hong Sun. MCF7 (human breast cancer), H1299 (non-small cell lung carcinoma), and PC3 (human prostate cancer) cell lines were obtained from Dr. Giuseppe Pizzorno. Normal human dermal fibroblasts, HDF and normal human mammary epithelial cells, HMEpC, were purchased from Cell Applications (San Diego, Calif.). U118, U87, and MCF7 cultures were grown in high-glucose DMEM supplemented with 10% Fetal Bovine Serum (FBS, HyClone, Waltham, Mass.) and 1% Penicillin/Streptomycin. H1299 was grown in RPMI with 10% FBS and 1% Pen/Strep. PC3 cells were in F12K Medium with 10% FBS and 1% antibiotics. […] Cell number was measured by a hemacytometer (Hausser Scientific, Horsham, Pa.). Cell population doubling time (Td) was calculated from the exponential portion of the growth curve using the equation Td=0.693t/ln(Nt/N0), where t is time, and Nt and N0 represent cell numbers at time t and initial time, respectively (Y. Zhang, et al., Cancer Res 62 (2002) 1205-12). […]
(§5) To examine the effects of resveratrol on glioma cells, 5×10^4 U87 or U118 glioblastoma (Grade IV glioma cell) lines were plated in 60 mm dishes. […] Cells were then trypsinized and cell numbers counted at 3, 6, and 9 days post treatment.

U87 cells [5] = assay: as above; type: cell-based, human; conditions: cells counted at 3, 6 and 9 days post treatment, dose- and time-dependent
Experimental: as §4, §5

U87 cells [6] = assay: Cellular hypertrophy / cell morphology; type: cell-based, human
From the text: Specifically, resveratrol transformed spindle-shaped glioma cells to enlarged and irregular flatten-shaped ones. The mean diameter of the resveratrol-treated U87 was 5 fold longer than the diameter parallel to the spindle axis of the mock-or vehicle-treated glioma cells. In contrast, mock and vehicle (acetone) treatment had no effect on inducing cellular hypertrophy.
It was then examined whether depletion of RNF20 could induce cellular senescence in glioma cells. Depletion of RNF20 induced similar cellular hypertrophy as observed with resveratrol treatment. Specifically, depletion of RNF20 transformed spindle-shaped glioma cells into extremely enlarged and irregular flatten-shaped ones (data not shown).

U87 glioma cells = assay: Senescence-associated-β-galactosidase (SA-β-gal) staining; type: cell-based, human; conditions: resveratrol-induced hypertrophic cells
Experimental: (§6) Senescence-β-galactosidase staining was performed with a kit (Cat. #9860, Cell Signaling, Danvers, Mass.) according to manufacturer's protocol. Briefly, cells in 35 mm well were washed with 2 mL PBS, fixed for 10-15 minutes in 2 mL fixative solution, washed twice with 2 mL PBS, and then incubated in SA-β-gal staining solution overnight at 37° C. To determine whether cellular hypertrophy induced by resveratrol was associated with cellular senescence of glioma cells, expression of senescence-associated-β-galactosidase (SA-β-gal) marker was tested (G. P. Dimri, et al., Proc Natl Acad Sci USA 92 (1995) 9363-7; G. P. Dimri, et al., Biol Signals 5 (1996) 154-62).

U118 glioma cells = assay: as above; type: cell-based, human; conditions: resveratrol-induced hypertrophic cells
Experimental: as §6

[7] = test system: mono-ubiquitination of histone H2B at K120 (uH2B); assay: Western analysis of uH2B, acute (4-hour) resveratrol treatment; type: cell-based, human
Experimental: as §2, §3

U118 xenograft = assay: Growth of human tumor xenograft from resveratrol-pretreated cells; type: in vivo, nude (nu/nu) mice; conditions: U118 treated 9 days in culture, 2×10^6 viable cells s.c. in nude mice; volume at 125 days post injection
Experimental: (§7) U87 or U118 Cells (2,000,000 in 0.1 ml PBS) were injected subcutaneously in the right flank of the female nude (nu/nu) mice (4-6 weeks old; Charles River Laboratories, Wilmington, Mass.). Five nude mice were used for each group. U87 tumor volume was measured at 27 days post injection while U118 tumor volume at 125 days post injection. When tumors were palpable, they were measured by a Vernier caliper in indicated days after injection. Tumor volume (TV) was calculated as follows: TV (mm^3)=LXW^2/2, where L is the longest dimension of the tumor (in mm), and W is the shortest dimension of the tumor. […] Glioma cells were then trypsinized, and 2×10^6 viable cells (by Trypan blue exclusion assay) were collected in 0.1 ml PBS. These cells were subsequently injected subcutaneously in the right flank of nude mice [female (nu/nu), 4-6 weeks old, 5 mice per group]. When the tumor was palpable, the size was measured with a Vernier caliper. Tumor volume was calculated (TV) using the formula: TV (mm^3)=LXW^2/2, in which L was the longest dimension of the tumor (in mm), and W was the shortest dimension of the tumor.

U87 xenograft = assay: as above; type: in vivo, nude (nu/nu) mice; conditions: U87 treated 9 days in culture, 2×10^6 viable cells s.c. in nude mice; volume at 27 days post injection
Experimental: as §7

U118 cells [8] = assay: Cellular hypertrophy / cell morphology; type: cell-based, human; conditions: resveratrol treatment

With `Oc1ccc(/C=C/c2cc(O)cc(O)c2)cc1` [resveratrol, 3,4′,5-trihydroxy-trans-stilbene] as the molecule, how does the “clonogenicity (plating efficiency, colonies of more than 50 cells)” value (U118 cells [1]) read?
The value was “marked decrease in their propensity for forming colonies”.

What about the “clonogenicity (plating efficiency, colonies of more than 50 cells)” value (U87 cells [2]) of the same molecule?
Its value is “marked decrease in their propensity for forming colonies”.

What about the “uH2B level (Western)” value ([3]; U87, chronic treatment up to 9 days, 6, 20, 60 μM) of the same molecule?
The value was “inhibited uH2B”.

What about the “uH2B level (Western)” value ([3]; U118, chronic treatment up to 9 days, 6, 10, 20 μM) of the same molecule?
Its value is “inhibited uH2B”.

And the “proliferation of glioma cells (viable cell number)” value (U118 cells [4])?
Its value is “significantly inhibited proliferation”.

What about the “proliferation of glioma cells (viable cell number)” value (U87 cells [5]) of the same molecule?
Its value is “significantly inhibited proliferation”.

What about the “mean diameter of treated cells versus diameter parallel to the spindle axis of mock- or vehicle-treated cells” value (U87 cells [6]) of the same molecule?
Its value is 5 fold.

And the “cellular hypertrophy (cell volume and cell morphology)” value (U87 cells [6]; resveratrol treatment)?
The value was “induced dramatic changes in cell volume and cell morphology”.

And the “expression of SA-β-gal senescence marker” value (U87 glioma cells)?
Its value is “SA-β-gal was detected”.

And the “expression of SA-β-gal senescence marker” value (U118 glioma cells)?
The value was “SA-β-gal was detected”.

And the “uH2B level (Western)” value ([7]; 10, 100, 500 μM for 4 h, U87, U118, MCF7, H1299, PC3, HDF, HMEpC)?
Its value is “inhibited uH2B within 4 hours in a dose-dependent manner”.

And the “uH2B level (Western)” value ([7]; acute incubation, high dose 500 μM)?
Its value is “effective in inhibiting uH2B”.

And the “tumorigenicity (tumor volume) in xenograft model” value (U118 xenograft)?
The value was “inhibited the tumorigenecity”.

What about the “tumorigenicity (tumor volume) in xenograft model” value (U87 xenograft) of the same molecule?
Its value is “inhibited the tumorigenecity”.

What about the “cellular hypertrophy (cell volume and cell morphology)” value (U118 cells [8]) of the same molecule?
The value was “induced dramatic changes in cell volume and cell morphology”.
